Source: the kinase profiling compilation of Christmann-Franck et al. (2016)

Columns and labels:
Test in all cases: radiometric filter-binding kinase assay, Kinase HotSpot
Conditions in all cases: compound 0.5 µM; ATP 10 µM
GRK7 (human) = GRK7 (human) (UniProt Q8WTQ7)
IRAK4 (human) = IRAK4 (human) (UniProt Q9NWZ3)
TXK (human) = TXK (human) (UniProt P42681)
PIM3 (human) = PIM3 (human) (UniProt Q86V86)
PIM2 (human) = PIM2 (human) (UniProt Q9P1W9)
PASK (human) = PASK (human) (UniProt Q96RG2)
TYRO3 (human) = TYRO3 (human) (UniProt Q06418)
TGFBR1 (human) = TGFBR1 (human) (UniProt P36897)
BTK (human) = BTK (human) (UniProt Q06187)
OXSR1 (human) = OXSR1 (human) (UniProt O95747)
NEK6 (human) = NEK6 (human) (UniProt Q9HC98)
MAP3K5 (human) = MAP3K5 (human) (UniProt Q99683)
TNK2 (human) = TNK2 (human) (UniProt Q07912)
PBK (human) = PBK (human) (UniProt Q96KB5)
NEK11 (human) = NEK11 (human) (UniProt Q8NG66)
TAOK1 (human) = TAOK1 (human) (UniProt Q7L7X3)
PRKCA (human) = PRKCA (human) (UniProt P17252)
MAPK10 (human) = MAPK10 (human) (UniProt P53779)
GRK4 (human) = GRK4 (human) (UniProt P32298)
NEK3 (human) = NEK3 (human) (UniProt P51956)
PLK1 (human) = PLK1 (human) (UniProt P53350)
ITK (human) = ITK (human) (UniProt Q08881)
INSR (human) = INSR (human) (UniProt P06213)
MAP3K8 (human) = MAP3K8 (human) (UniProt P41279)
MYO3B (human) = MYO3B (human) (UniProt Q8WXR4)
FGFR4 (human) = FGFR4 (human) (UniProt P22455)
ULK3 (human) = ULK3 (human) (UniProt Q6PHR2)
[1] = biological target: TYK2 JH1 catalytic (human) (UniProt P29597)
CHEK1 (human) = CHEK1 (human) (UniProt O14757)
RPS6KB1 (human) = RPS6KB1 (human) (UniProt P23443)
ADRBK2 (human) = ADRBK2 (human) (UniProt P35626)
CDK4 CCND3 (human) = CDK4 CCND3 (human) (UniProt P30281+P11802)
RPS6KA1 KD1 KD2 (human) = RPS6KA1 KD1 KD2 (human) (UniProt Q15418)
YES1 (human) = YES1 (human) (UniProt P07947)
HCK (human) = HCK (human) (UniProt P08631)
MAP2K1 (human) = MAP2K1 (human) (UniProt Q02750)
NEK2 (human) = NEK2 (human) (UniProt P51955)
PRKD1 (human) = PRKD1 (human) (UniProt Q15139)
MAPKAPK3 (human) = MAPKAPK3 (human) (UniProt Q16644)
MARK4 (human) = MARK4 (human) (UniProt Q96L34)
TGFBR2 (human) = TGFBR2 (human) (UniProt P37173)
SIK2 (human) = SIK2 (human) (UniProt Q9H0K1)

Sequence of MAP2K1 (human) (Q02750 whole entry, looked up): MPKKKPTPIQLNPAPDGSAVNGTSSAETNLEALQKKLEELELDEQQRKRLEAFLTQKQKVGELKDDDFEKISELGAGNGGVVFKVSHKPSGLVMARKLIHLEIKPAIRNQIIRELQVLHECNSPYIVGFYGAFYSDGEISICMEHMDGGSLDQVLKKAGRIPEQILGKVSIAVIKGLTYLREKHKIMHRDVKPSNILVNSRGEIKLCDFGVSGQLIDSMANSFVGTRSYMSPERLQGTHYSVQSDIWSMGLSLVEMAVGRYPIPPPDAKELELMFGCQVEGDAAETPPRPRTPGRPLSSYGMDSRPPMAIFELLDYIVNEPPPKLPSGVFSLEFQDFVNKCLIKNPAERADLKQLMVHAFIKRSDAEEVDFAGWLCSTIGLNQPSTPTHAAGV
Sequence of ITK (human) (Q08881 whole entry, looked up): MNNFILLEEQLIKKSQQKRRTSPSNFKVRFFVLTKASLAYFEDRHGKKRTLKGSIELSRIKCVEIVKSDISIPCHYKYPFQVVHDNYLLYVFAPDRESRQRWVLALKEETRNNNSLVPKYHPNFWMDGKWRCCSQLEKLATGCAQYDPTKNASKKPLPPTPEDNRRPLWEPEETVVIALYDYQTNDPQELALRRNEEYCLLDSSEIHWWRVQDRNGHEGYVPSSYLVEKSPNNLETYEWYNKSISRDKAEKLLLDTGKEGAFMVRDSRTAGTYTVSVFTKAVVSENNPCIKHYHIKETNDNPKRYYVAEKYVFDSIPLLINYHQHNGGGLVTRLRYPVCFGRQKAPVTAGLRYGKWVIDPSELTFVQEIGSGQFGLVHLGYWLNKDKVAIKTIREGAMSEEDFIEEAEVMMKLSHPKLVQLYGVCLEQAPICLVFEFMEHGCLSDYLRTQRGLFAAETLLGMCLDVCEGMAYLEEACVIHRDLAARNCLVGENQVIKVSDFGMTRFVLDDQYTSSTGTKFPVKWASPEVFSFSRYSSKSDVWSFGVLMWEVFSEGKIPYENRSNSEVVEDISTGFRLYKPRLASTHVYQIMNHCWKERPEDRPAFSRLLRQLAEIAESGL
Sequence of TGFBR1 (human) (P36897 whole entry, looked up): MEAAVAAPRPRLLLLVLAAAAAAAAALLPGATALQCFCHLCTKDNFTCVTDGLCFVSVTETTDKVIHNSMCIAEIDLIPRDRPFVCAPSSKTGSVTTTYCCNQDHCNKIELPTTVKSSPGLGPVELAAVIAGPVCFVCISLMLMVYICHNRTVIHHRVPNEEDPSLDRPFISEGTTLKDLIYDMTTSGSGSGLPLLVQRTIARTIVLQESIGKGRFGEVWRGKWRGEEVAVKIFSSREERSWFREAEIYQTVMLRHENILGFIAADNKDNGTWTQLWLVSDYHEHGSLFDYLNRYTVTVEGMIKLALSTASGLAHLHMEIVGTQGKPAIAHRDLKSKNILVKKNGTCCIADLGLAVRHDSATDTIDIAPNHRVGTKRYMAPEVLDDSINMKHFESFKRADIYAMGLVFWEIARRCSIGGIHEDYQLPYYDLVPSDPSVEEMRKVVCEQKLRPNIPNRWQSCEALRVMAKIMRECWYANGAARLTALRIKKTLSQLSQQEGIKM
Sequence of CHEK1 (human) (O14757 whole entry, looked up): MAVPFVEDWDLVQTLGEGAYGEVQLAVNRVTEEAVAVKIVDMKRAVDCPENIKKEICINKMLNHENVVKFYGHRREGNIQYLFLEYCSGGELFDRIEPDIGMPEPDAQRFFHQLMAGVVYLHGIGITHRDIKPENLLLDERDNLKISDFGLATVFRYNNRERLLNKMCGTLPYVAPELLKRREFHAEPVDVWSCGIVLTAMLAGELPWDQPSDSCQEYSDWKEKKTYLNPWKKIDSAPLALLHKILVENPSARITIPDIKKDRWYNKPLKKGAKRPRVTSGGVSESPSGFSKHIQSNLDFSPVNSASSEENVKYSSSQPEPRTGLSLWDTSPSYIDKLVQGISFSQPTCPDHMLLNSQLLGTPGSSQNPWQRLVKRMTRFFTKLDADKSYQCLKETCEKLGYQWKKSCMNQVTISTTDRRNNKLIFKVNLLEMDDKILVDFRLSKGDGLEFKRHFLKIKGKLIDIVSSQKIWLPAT
Sequence of YES1 (human) (P07947 whole entry, looked up): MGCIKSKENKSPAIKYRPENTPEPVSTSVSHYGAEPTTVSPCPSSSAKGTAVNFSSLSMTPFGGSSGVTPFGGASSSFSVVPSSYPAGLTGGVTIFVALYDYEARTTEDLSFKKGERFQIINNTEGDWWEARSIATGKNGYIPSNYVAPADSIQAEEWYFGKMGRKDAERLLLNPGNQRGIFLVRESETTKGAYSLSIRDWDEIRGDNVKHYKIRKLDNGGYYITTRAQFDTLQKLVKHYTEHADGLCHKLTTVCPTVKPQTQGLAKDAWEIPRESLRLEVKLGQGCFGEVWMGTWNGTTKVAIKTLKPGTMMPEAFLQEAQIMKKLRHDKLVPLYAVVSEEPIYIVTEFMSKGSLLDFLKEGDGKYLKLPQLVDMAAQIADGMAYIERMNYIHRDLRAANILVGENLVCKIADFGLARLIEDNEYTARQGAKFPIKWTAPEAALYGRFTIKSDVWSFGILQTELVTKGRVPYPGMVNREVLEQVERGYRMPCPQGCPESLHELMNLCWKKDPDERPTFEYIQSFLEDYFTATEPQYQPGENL
Sequence of MAPK10 (human) (P53779 whole entry, looked up): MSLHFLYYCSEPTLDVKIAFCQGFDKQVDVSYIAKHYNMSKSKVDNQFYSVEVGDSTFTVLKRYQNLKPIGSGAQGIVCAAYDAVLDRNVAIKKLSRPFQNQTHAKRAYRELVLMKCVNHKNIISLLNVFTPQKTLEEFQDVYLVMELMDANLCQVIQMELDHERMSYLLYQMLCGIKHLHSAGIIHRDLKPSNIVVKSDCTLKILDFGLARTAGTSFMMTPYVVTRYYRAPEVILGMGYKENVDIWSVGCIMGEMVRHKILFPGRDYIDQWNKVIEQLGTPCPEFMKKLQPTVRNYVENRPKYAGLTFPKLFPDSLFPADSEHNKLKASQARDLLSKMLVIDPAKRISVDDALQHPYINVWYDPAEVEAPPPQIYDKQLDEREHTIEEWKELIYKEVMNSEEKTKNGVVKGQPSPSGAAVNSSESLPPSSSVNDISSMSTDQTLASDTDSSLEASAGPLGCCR
Sequence of MARK4 (human) (Q96L34 whole entry, looked up): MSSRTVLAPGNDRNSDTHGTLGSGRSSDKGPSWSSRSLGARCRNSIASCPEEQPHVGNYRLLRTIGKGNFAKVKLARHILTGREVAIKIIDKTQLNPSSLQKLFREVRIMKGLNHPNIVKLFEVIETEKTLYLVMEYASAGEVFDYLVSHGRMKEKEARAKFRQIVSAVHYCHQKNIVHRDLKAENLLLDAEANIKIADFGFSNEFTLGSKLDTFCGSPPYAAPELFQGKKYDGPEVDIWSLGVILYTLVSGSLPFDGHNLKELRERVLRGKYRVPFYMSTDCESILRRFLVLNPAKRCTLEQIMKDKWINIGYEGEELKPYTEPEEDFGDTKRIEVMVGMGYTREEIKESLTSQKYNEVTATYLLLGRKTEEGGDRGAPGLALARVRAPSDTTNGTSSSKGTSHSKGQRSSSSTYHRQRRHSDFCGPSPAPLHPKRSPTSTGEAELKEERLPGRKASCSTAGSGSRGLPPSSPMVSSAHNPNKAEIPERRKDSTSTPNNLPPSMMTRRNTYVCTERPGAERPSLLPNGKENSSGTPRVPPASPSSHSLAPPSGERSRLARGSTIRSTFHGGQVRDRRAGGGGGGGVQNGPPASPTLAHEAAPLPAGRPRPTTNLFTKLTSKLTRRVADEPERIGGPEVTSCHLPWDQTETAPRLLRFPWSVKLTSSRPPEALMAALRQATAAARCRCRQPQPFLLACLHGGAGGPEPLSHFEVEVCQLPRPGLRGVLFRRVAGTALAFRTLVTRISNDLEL

Work on CNC(=O)c1cc(Oc2ccc(NC(=O)Nc3ccc(Cl)c(C(F)(F)F)c3)cc2)ccn1 yielded a residual activity (GRK7 (human)) of 97.3%, a residual activity (IRAK4 (human)) of 99.6% and a residual activity (TXK (human)) of 106%. For the same compound, the residual activity (PIM3 (human)) was 100%, the residual activity (PIM2 (human)) was 103% and the residual activity (PASK (human)) was 99.5%. The residual activity (TYRO3 (human)) was 91.7%, the residual activity (TGFBR1 (human)) was 94.1% and the residual activity (BTK (human)) was 102%. The residual activity (OXSR1 (human)) was 103%, the residual activity (NEK6 (human)) was 105% and the residual activity (MAP3K5 (human)) was 103%. The residual activity (TNK2 (human)) was 97.6%, the residual activity (PBK (human)) was 97.5% and the residual activity (NEK11 (human)) was 105%. It also gave a residual activity (TAOK1 (human)) of 82%, a residual activity (PRKCA (human)) of 96.8% and a residual activity (MAPK10 (human)) of 94.2%. It also gave a residual activity (GRK4 (human)) of 103%, a residual activity (NEK3 (human)) of 97.2% and a residual activity (PLK1 (human)) of 98.1%. For the same compound, the residual activity (ITK (human)) was 106%, the residual activity (INSR (human)) was 106% and the residual activity (MAP3K8 (human)) was 93.6%. The residual activity (MYO3B (human)) was 85.6%, the residual activity (FGFR4 (human)) was 104% and the residual activity (ULK3 (human)) was 103%. The residual activity [1] was 98.9%, the residual activity (CHEK1 (human)) was 173% and the residual activity (RPS6KB1 (human)) was 91.4%. It also gave a residual activity (ADRBK2 (human)) of 98.4%, a residual activity (CDK4 CCND3 (human)) of 114% and a residual activity (RPS6KA1 KD1 KD2 (human)) of 101%. It also gave a residual activity (YES1 (human)) of 82.8%, a residual activity (HCK (human)) of 90.3% and a residual activity (MAP2K1 (human)) of 102%. The residual activity (NEK2 (human)) was 99.3%, the residual activity (PRKD1 (human)) was 99.7% and the residual activity (MAPKAPK3 (human)) was 100%. For the same compound, the residual activity (MARK4 (human)) was 98.1%, the residual activity (TGFBR2 (human)) was 99.9% and the residual activity (SIK2 (human)) was 102%.
O=C1NC(=O)/C(=C/c2ccc3c(c2)OC(F)(F)O3)S1 was tested, and the residual activity (GRK7 (human)) was 102%, the residual activity (IRAK4 (human)) was 99.2% and the residual activity (TXK (human)) was 95.4%. The residual activity (PIM3 (human)) was 39.8%, the residual activity (PIM2 (human)) was 91.9% and the residual activity (PASK (human)) was 78.2%. For the same compound, the residual activity (TYRO3 (human)) was 99.6%, the residual activity (TGFBR1 (human)) was 102% and the residual activity (BTK (human)) was 94.3%. The residual activity (OXSR1 (human)) was 97.1%, the residual activity (NEK6 (human)) was 113% and the residual activity (MAP3K5 (human)) was 105%. It also gave a residual activity (TNK2 (human)) of 93.3%, a residual activity (PBK (human)) of 91.8% and a residual activity (NEK11 (human)) of 111%. The residual activity (TAOK1 (human)) was 90%, the residual activity (PRKCA (human)) was 106% and the residual activity (MAPK10 (human)) was 102%. It also gave a residual activity (GRK4 (human)) of 102%, a residual activity (NEK3 (human)) of 92.6% and a residual activity (PLK1 (human)) of 92.9%. For the same compound, the residual activity (ITK (human)) was 92.9%, the residual activity (INSR (human)) was 106% and the residual activity (MAP3K8 (human)) was 93%. It also gave a residual activity (MYO3B (human)) of 87.9%, a residual activity (FGFR4 (human)) of 91% and a residual activity (ULK3 (human)) of 109%. For the same compound, the residual activity [1] was 88.4%, the residual activity (CHEK1 (human)) was 101% and the residual activity (RPS6KB1 (human)) was 85.1%. It also gave a residual activity (ADRBK2 (human)) of 102%, a residual activity (CDK4 CCND3 (human)) of 98.2% and a residual activity (RPS6KA1 KD1 KD2 (human)) of 71.1%. It also gave a residual activity (YES1 (human)) of 87.9%, a residual activity (HCK (human)) of 89.8% and a residual activity (MAP2K1 (human)) of 95.6%. It also gave a residual activity (NEK2 (human)) of 98.9%, a residual activity (PRKD1 (human)) of 94.8% and a residual activity (MAPKAPK3 (human)) of 94.2%. For the same compound, the residual activity (MARK4 (human)) was 97.8%, the residual activity (TGFBR2 (human)) was 107% and the residual activity (SIK2 (human)) was 101%.
